Results taken from patent US12121514B2, “Nonselective metabotropic glutamate receptor activators for treatment of attention deficit disorder and 22Q syndrome” (THE CHILDREN'S HOSPITAL OF PHILADELPHIA, priority 2015, dated 2024).

What was measured:
[1] = system: ADHD subjects with anxiety; test: Vanderbilt anxiety items 41, 42 and 47, Phase Ib trial of NFC-1; assay type: in vivo, human; conditions: two subjects with scores of 3 on 2 of the 3 items at enrollment; week 5
Source text: (§1) The Vanderbilt Rating Scale is a measure that can be completed by parents or teachers (separate forms, see Vanderbilt Rating Scale Parents and Vanderbilt Rating Scale Teachers). The Vanderbilt scale rates the child's behavior on items such as attention, finishing tasks, hyperactivity, difficulty waiting, and measures of conduct or oppositional defiant disorders—as well as measures of overall school performance and interactions with others. The first 18 items on the Vanderbilt scale correspond to those of the ADHD Rating Scale IV above while the Vanderbilt scale also includes items 19-47 related to other mental disorders including ODD (items 19-26), conduct disorder (items 27-40), anxiety (items 41, 42, and 47), and depression (items 43-46). Each of the behavioral assessment items on the Vanderbilt Scale are rated 0, 1, 2, or 3, with 0=never occurring; 1=occasionally, 2=often, and 3=very often. Thus, the ADHD Rating Scale IV, ADHD Rating Scale V, and items 1-18 of the Vanderbilt Rating Scale are equivalent scales, while additional items on the Vanderbilt Scale assess co-morbid phenotypes and disorders.
Two subjects had maximum scores of 3 on 2 of the 3 Vanderbilt items 41, 42, and 47 that are related to anxiety at enrollment. […] One of those subjects also scored 3 on 3 of the 4 Vanderbilt items related to depression (items 43-46) at enrollment and scored 3 on all 4 items at week 1.

[2] = system: dementia-related cognitive impairment patients; conditions: cited from earlier work
[3] = system: adolescent subjects with ADHD and at least one genetic alteration in an mGluR network gene; test: BRIEF scale anxiety/mood items (parent), Phase Ib trial of NFC-1; assay type: in vivo, human; conditions: all questions, all 30 subjects; week 5; 154 at enrollment
[4] = system: subject with ADHD, ODD and conduct disorder (CD); test: Vanderbilt CD score (items 27-40), Phase Ib trial of NFC-1; assay type: in vivo, human; conditions: Subject 130
Source text: as §1, with “[…] disorders-as” for “defiant disorders—as”, “disorders. One subject screening positive for ODD (no. 130) also screened positive for conduct disorder (CD), based on scores of 2 or 3 for 3 out of the […] behaviors assessed by items 27-40 of the Vanderbilt Scale at enrollment and again at week 1. […]” for “disorders.”

For `O=C1CC[C@H](C(=O)N2CCCCC2)N1` [NFC-1, fasoracetam monohydrate], which “scores on Vanderbilt anxiety items 41, 42 and 47” value [1] is on record?
The value was “scored 3 on all 3 items”.

What about the safety and tolerability ([2]; Phase I-III clinical trials in dementia-related cognitive impairment) of the same molecule?
The safety and tolerability was “generally safe and well tolerated”.

What about the “effects on psychiatric symptoms” value ([2]; Phase III data, cerebral infarct patients and adult dementia patients with cerebrovascular diseases) of the same molecule?
The value was “beneficial effects”.

And the efficacy in dementia ([2]; Phase III trials)?
Its efficacy in dementia is “did not show sufficient efficacy”.

And the “total BRIEF "often" score, anxiety/mood items” value [3]?
The value was 77.

What about the “improvement in Vanderbilt CD score” value ([4]; week 1 to week 5) of the same molecule?
The value was 4 points.

And the “Vanderbilt CD score” value ([4]; week 5, out of 16, 16/16 at week 1)?
The value was 12.
